In US6518278B1, “Carcinostatic substance for compatible administration, process of administrating same and process of rapidly inspecting same” (Debio Pharm S.A., priority 1994, dated 2003):
Entries after “also recorded” stand apart in the source; their conditions may differ.

Tested on: human leutecyte strain cell (RPMI-8402)
Assay: Extinction effect of compatible administration of l-OHP and a compatible agent on tumor cells (compatible efficiency OE)
Format: cell-based
Conditions: for Compatible Effects of l-OHP and Compatible Agent, Simultaneous Administration: both added day 1
Protocol: In the evaluation of the extinction effect of the tumor cells of the respective combinations, a pure extinction effect produced by the compatible administration of the compatible agent and the l-OHP is calculated by subtracting an extinction effect of a control (no carcinostatic substance is employed).
The compatibly administration effect is calculated by employing an Equation (1) described later. When the value (%) calculated by this Equation is between 85 and 115%, the compatible administration effect is evaluated to be an additive effect. When the value is below 85%, it is evaluated to be below the additive effect. When the value is over 115%, it is evaluated to be a synergistic effect, ±15% is a reliability limit or a measurement error.
A target tumor cell was a human leutecyte strain cell (RPMI-8402 of Gibuko K.K.). To these cells was added blood serum of a cow embryo (15%, Gibuko K.K.) to prepare a cell floating liquid of which the number of the cells was 10^6/ml in a cultivation bottle (tradename; Sumiron of Sumitomo Bakelite o., Ltd.) having a volume of 6 ml. A plenty of the cultivation bottles having the cell floating liquid therein were prepared, and the following experiments were conducted while selecting one kind of a compatible agent among cisplatin, 5-FU, irinotecane, adriamycin, etoposide, mitomycin, mitoxantrone, bleomycin, vincristin and vindecin. The time schedules of the controls (no addition of medicines, addition of only the l-OHP and addition of only a compatible agent, and specified in the below items (1) to (4)) and of the compatible administration of the compatible agent and the l-OHP are shown in FIG. 10.
(1) No medicine was added (control).
(2) Only the l-OHP was added at a second day.
(3) A large amount of compatible agents were added at a first day ([…] of the cisplatin, 10 μg/ml of the 5-FU, 0.05 μg/ml of the adriamycin and 1 μg/ml of the etoposide, and for the comparison purpose, 0.05 μg/ml of the vincristin and 0.06 μg/ml of the vindecin). The adding amount of the irinotecano was fixed to 10 μg/ml, and the addition amount of the l-OHP was 5 μg/ml.
(4) A small amount of compatible agents were added at a first day (0.5 μg/ml of the cisplatin, 5 μg/ml of the 5-FU, 0.01 μg/ml of the adriamycin and 0.5 μg/ml of the etoposide, and for the comparison purpose, 0.01 μg/ml of the vincristin and 0.01 μg/ml of the vindecin). The adding amount of the irinotecane was fixed to 10 μg/ml, and the addition amount of the l-OHP was 1 μg/ml.
(5) The l-OHP and a large amount (the same as that of the above item (3) and so forth in the following items) of the compatible agents were simultaneously added at a first day.
(6) The l-OHP and a small amount (the same as that of the above item (4) and so forth in the following items) of the compatible agents were simultaneously added at a first day.
(7) The l-OHP was added at a first day and a large amount of the compatible agents were added at a second day.
(8) The l-OHP was added at a first day and a small amount of the compatible agents were added at a second day.
(9) The l-OHP was added at a first day and a large amount of the compatible agents were added at a third day.
(10) The l-OHP was added at a first day and a small amount of the compatible agents were added at a third day.
(11) The l-OHP was added at a first day and a large amount of the compatible agents were added at a fourth day.
(12) The l-OHP was added at a first day and a small amount of the compatible agents were added at a fourth day.
(13) A large amount of the compatible agents were added at a first day and the l-OHP was added at a second day.
(14) A small amount of the compatible agents were added at a first day and the l-OHP was added at a second day.
(15) A large amount of the compatible agents were added at a first day and the l-OHP was added at a third day.
(16) A small amount of the compatible agents were added at a first day and the l-OHP was added at a third day.

[1] = larger dosage of compatible agent (μg/ml: cisplatin 1, 5-FU 10, irinotecane 10, adriamycin 0.05, vincristin 0.05, vindecin 0.05, etoposide 1, bleomycin 10, mitoxantrone 0.1, mitomycine 1), l-OHP 1 μg/ml (5 μg/ml with irinotecane) added day 1
[2] = larger dosage of compatible agent (μg/ml: cisplatin 1, 5-FU 10, irinotecane 10, adriamycin 0.05, vincristin 0.05, vindecin 0.05, etoposide 1, bleomycin 10, mitoxantrone 0.1, mitomycine 1), l-OHP 1 μg/ml (5 μg/ml with irinotecane)
[3] = larger dosage of compatible agent added day 1 (μg/ml: cisplatin 1, 5-FU 10, irinotecane 10, adriamycin 0.05, vincristin 0.05, vindecin 0.05, etoposide 1, bleomycin 10, mitoxantrone 0.1, mitomycine 1), l-OHP 1 μg/ml (5 μg/ml with irinotecane)
[4] = smaller dosage of compatible agent (μg/ml: cisplatin 0.5, 5-FU 5, irinotecane 10, adriamycin 0.01, vincristin 0.01, vindecin 0.01, etoposide 0.5, bleomycin 1, mitoxantrone 0.05, mitomycine 0.5), l-OHP 1 μg/ml added day 1
[5] = smaller dosage of compatible agent (μg/ml: cisplatin 0.5, 5-FU 5, irinotecane 10, adriamycin 0.01, vincristin 0.01, vindecin 0.01, etoposide 0.5, bleomycin 1, mitoxantrone 0.05, mitomycine 0.5), l-OHP 1 μg/ml
[6] = smaller dosage of compatible agent added day 1 (μg/ml: cisplatin 0.5, 5-FU 5, irinotecane 10, adriamycin 0.01, vincristin 0.01, vindecin 0.01, etoposide 0.5, bleomycin 1, mitoxantrone 0.05, mitomycine 0.5), l-OHP 1 μg/ml

Compound | compatible administration effect with l-OHP, summary in words | Compatible Effects of l-OHP and Compatible Agent, Time Lag Administration, Addition Administration of Compatible Agent day 2 [1] | Compatible Effects of l-OHP and Compatible Agent, Time Lag Administration, Addition Administration of Compatible Agent day 3 [1] | Compatible Effects of l-OHP and Compatible Agent, Time Lag Administration, Addition Administration of Compatible Agent day 4 [1] | Compatible Effects of l-OHP and Compatible Agent, Simultaneous Administration [2] | Compatible Effects of l-OHP and Compatible Agent, Time Lag Administration, Addition Administration of l-OHP day 2 [3] | Compatible Effects of l-OHP and Compatible Agent, Time Lag Administration, Addition Administration of l-OHP day 3 [3] | Compatible Effects of l-OHP and Compatible Agent, Time Lag Administration, Addition Administration of l-OHP day 4 [3] | Compatible Effects of l-OHP and Compatible Agent, Time Lag Administration, Addition Administration of Compatible Agent day 2 [4] | Compatible Effects of l-OHP and Compatible Agent, Time Lag Administration, Addition Administration of Compatible Agent day 3 [4] | Compatible Effects of l-OHP and Compatible Agent, Time Lag Administration, Addition Administration of Compatible Agent day 4 [4] | Compatible Effects of l-OHP and Compatible Agent, Simultaneous Administration [5] | Compatible Effects of l-OHP and Compatible Agent, Time Lag Administration, Addition Administration of l-OHP day 2 [6] | Compatible Effects of l-OHP and Compatible Agent, Time Lag Administration, Addition Administration of l-OHP day 3 [6] | Compatible Effects of l-OHP and Compatible Agent, Time Lag Administration, Addition Administration of l-OHP day 4 [6]
CCc1c2c(nc3ccc(OC(=O)N4CCC(N5CCCCC5)CC4)cc13)-c1cc3c(c(=O)n1C2)COC(=O)[C@]3(O)CC [irinotecane] | the additive effect or the synergistic effect regardless of the administration method and the dosage in almost all the cases; also recorded: synergistic effects can be obtained in all the combinations when the l-OHP is added later | ◯ (◯: Additive Effect) | ◯ (◯: Additive Effect) | Δ (Δ: Below Additive Effect) | ◯ (◯: Additive Effect) | ◯ (◯: Additive Effect) | • (•: Synergistic Effect) | • (•: Synergistic Effect) | ◯ (◯: Additive Effect) | ◯ (◯: Additive Effect) | ◯ (◯: Additive Effect) | ◯ (◯: Additive Effect) | • (•: Synergistic Effect) | • (•: Synergistic Effect) | • (•: Synergistic Effect)
CO[C@@]12[C@H](COC(N)=O)C3=C(C(=O)C(C)=C(N)C3=O)N1C[C@@H]1N[C@@H]12 [mitomycine, mitomycin] | the additive effect or the synergistic effect regardless of the administration method and the dosage in almost all the cases; also recorded: synergistic effects can be obtained in most combinations when the l-OHP is administrated before to the mitomycin | ◯ (◯: Additive Effect) | • (•: Synergistic Effect) | • (•: Synergistic Effect) | ◯ (◯: Additive Effect) | ◯ (◯: Additive Effect) | Δ (Δ: Below Additive Effect) | Δ (Δ: Below Additive Effect) | ◯ (◯: Additive Effect) | • (•: Synergistic Effect) | • (•: Synergistic Effect) | ◯ (◯: Additive Effect) | ◯ (◯: Additive Effect) | Δ (Δ: Below Additive Effect) | ◯ (◯: Additive Effect)
O=C1c2c(O)ccc(O)c2C(=O)c2c(NCCNCCO)ccc(NCCNCCO)c21 [mitoxantrone] | the additive effect or the synergistic effect regardless of the administration method and the dosage in almost all the cases; also recorded: synergistic effects can be obtained in all the combinations when a small amount of the mitoxantrone is employed and the l-OHP is added later | • (•: Synergistic Effect) | ◯ (◯: Additive Effect) | Δ (Δ: Below Additive Effect) | ◯ (◯: Additive Effect) | ◯ (◯: Additive Effect) | ◯ (◯: Additive Effect) | ◯ (◯: Additive Effect) | ◯ (◯: Additive Effect) | • (•: Synergistic Effect) | Δ (Δ: Below Additive Effect) | • (•: Synergistic Effect) | • (•: Synergistic Effect) | • (•: Synergistic Effect) | • (•: Synergistic Effect)
bleomycin | the additive effect or the synergistic effect regardless of the administration method and the dosage in almost all the cases; also recorded: synergistic effects can be obtained in most combinations when the l-OHP is added later at a third day and a fourth day | Δ (Δ: Below Additive Effect) | ◯ (◯: Additive Effect) | • (•: Synergistic Effect) | Δ (Δ: Below Additive Effect) | Δ (Δ: Below Additive Effect) | • (•: Synergistic Effect) | • (•: Synergistic Effect) | Δ (Δ: Below Additive Effect) | • (•: Synergistic Effect) | Δ (Δ: Below Additive Effect) | • (•: Synergistic Effect) | ◯ (◯: Additive Effect) | • (•: Synergistic Effect) | ◯ (◯: Additive Effect)
